This note sets out measurements from PubChem BioAssay (NCI).

Molecules are shown by their SMILES.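 Assay format: 96-well plates, 48-hour exposure. GI50 = concentration required for 50% inhibition of growth. TGI: concentration producing complete growth inhibition.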 Where only a bound is given, the exact number is not on record here.

Holding throughout (experiment): inhibition of tumour cell growth, NCI panel, 48 h
Test [1] relates to A549 NSCLC.
For test [2], the system named is HL-60(TB) leukemia.
For test [3], the system named is HT29 colon.
Test [4] relates to NCI-H23 lung.
In test [5] the test system is OVCAR-8 ovarian.
Test [6] relates to SR leukemia.
Test [7] has as its system MDA-MB-231 breast.
In test [8] the test system is MDA-MB-435.
Test [9] has as its system PC-3 prostate.

On to `CC1C[C@H](OC(N)=O)C(C)CC1=O` (some centres undefined), for which the TGI in [1], in [2], in test [3], in test [4] and in test [5] was over 100 µM throughout.

As to `COC1(OC)CC2C=C(S(=O)(=O)c3ccccc3)C1N(Cc1ccccc1)C2=O` (centres undefined), the TGI in [1] is over 100 µM; in test [2], 50.5 µM; in test [3] it was 93.7 µM; in test [4], 40.5 µM; in test [5], 64.7 µM; in test [6], over 100 µM.

Turning to `CC(C)c1ccccc1NC(=O)C(=O)Cc1nc2ccccc2s1`, the TGI in [1], in test [2], in test [3], in test [4], in [5] and in test [6] was over 100 µM in each case.

Take `Brc1ccc(-c2nnc(-c3nn(-c4ccccc4)c4nc5ccccc5nc34)o2)cc1`: the TGI in test [1], in [2], in test [3], in test [4], in test [5] and in test [6] was over 100 µM in each case.

With `Cc1ccc(NC(=O)c2cccc([N+](=O)[O-])c2O)c([N+](=O)[O-])c1`, the TGI in test [1] is 68 µM; in [2], over 100 µM; in test [3], 69.9 µM; in test [4], 27.6 µM; in [5] it was 30.1 µM.

Regarding `O=C(CC1(O)C(=O)Nc2ccccc21)c1ccccc1Cl` (centres undefined), the TGI in test [1], in [2], in [3], in test [4] and in test [5] was over 100 µM each time.

Consider `CCOC(=O)C(=O)Nc1ccc(C)cc1C`, for which the TGI in test [1], in [2], in [3], in test [4], in test [5] and in test [6] was over 100 µM in each case.

In the case of `CCn1cc(/C=C/C(C)c2cn(CC)c(=O)[nH]c2=O)c(=O)[nH]c1=O` (centres undefined), the TGI in test [1], in test [2], in [3], in test [4] and in test [5] was over 100 µM in each case.

Take `CC1=CC(=O)CCC2(C)C1CC[C@@H]2OC=O` (some centres undefined): the TGI in [1], in [2], in [3], in test [4], in test [5] and in [6] was over 100 µM throughout.

As to `N/N=C1\C(=O)N(C2CCCCC2)C(=O)C1C(=O)NC1CCCCC1` (centres undefined), the TGI in test [1] is over 100 µM; in [2], 89.3 µM; in test [3], over 100 µM; in test [4] it was over 100 µM; in test [5], over 100 µM; in test [6], over 100 µM.

As to `CCOC(=O)N1CCc2cc(OC)c(OC)c3c2C1CC3=O` (centres undefined), the TGI in test [1], in test [2], in test [3], in test [5] and in test [6] was over 100 µM throughout.

Regarding `COc1ccc(/C(=N/NC(=O)NN)C(c2ccc(OC)cc2)C2(O)CNc3c(Cl)cc(Cl)cc32)cc1` (centres undefined), the TGI in test [1], in [2], in [3], in test [4] and in test [5] was over 100 µM each time.

Regarding `COc1ccc(C2=NNC(=O)OC2c2ccccc2)cc1` (centres undefined), the TGI in test [1], in test [2], in [3], in test [4], in test [5] and in test [6] was over 100 µM in each case.

Consider `Cc1cc2c(=O)n(-c3ccc(F)cc3)c(C)nc2c(C(=O)O)c1C`, for which the TGI in [1], in test [2], in [3], in test [4], in test [5] and in [6] was over 100 µM in each case.

For `COc1cccc(C2C(C#N)=C(N)Oc3cc(N)ccc32)c1` (centres undefined), the GI50 in test [1] is 0.572 µM; in test [2], 0.35 µM; in test [3], 0.36 µM; in test [7], 1.29 µM; in test [8], 0.138 µM; in test [4], 0.571 µM. Also, the GI50 was 0.649 µM in test [5], 0.509 µM in test [9] and 0.3 µM in test [6]. In addition, the TGI in [1] is over 100 µM; in [2] it was 0.745 µM; in test [3] it was 5.03 µM; in [7], 59.6 µM; in test [8], 0.672 µM; in test [4], over 100 µM. The TGI in test [5] is over 60.9 µM; in [9] it was over 100 µM; in test [6], over 100 µM.

On to `O=C(CO)CC(=O)C(=O)Nc1nc([N+](=O)[O-])cs1`, for which the TGI in [1], in [2], in [3], in test [4], in test [5] and in test [6] was over 100 µM each time.

Turning to `CC(=O)N1CC(Nc2ccc(OC(F)(F)F)cc2)=CC1=O`, the GI50 is 2.01 µM in test [1]; 0.842 µM in test [2]; 0.482 µM in test [3]; 0.195 µM in test [8]; 4.93 µM in test [4]; 3.63 µM in [5]. The values for the GI50 in [9] and in test [6] were 2.99 µM and 0.532 µM, respectively. For the same molecule, the TGI is over 100 µM in test [1]; over 100 µM in test [2]; 28.6 µM in test [3]; 0.439 µM in test [8]; over 100 µM in [4]; over 100 µM in [5]. In addition, the TGI in test [9] was over 100 µM; in [6], 52.2 µM.

Consider `Cc1cc(N(CCC#N)S(C)(=O)=O)ccc1C=O`, for which the TGI in [1], in test [2], in test [3], in test [4], in test [5] and in test [6] was over 100 µM in each case.
